# In article PMC2248166, “Quantitative peptide binding motifs for 19 human and mouse MHC class I molecules derived using positional scanning combinatorial peptide libraries” (Immunome Research, 2008):
# Where a SMILES comes first, the peptide text is derived from it.
# How the values were obtained:
# Assay in all cases: biochemical
# Type in all cases: binding
# HLA A*3201 = HLA A*3201 (Homo sapiens, UniProt P04439, A270S/D101S/D185E/E176V/E277Q/F133L/G103R/G107R/G231S/H175R/I121M/I218V/I322F/K168Q/L105A/L300P/L318F/M331R/P208A/P217A/Q94H/R106L/R138Q/S129P/T104I/T323A/T345S/V100E/V321M/V358M)
# HLA B*1503 = HLA B*1503 (Homo sapiens, UniProt P01889, A329T/A93T/A95T/C349S/D201E/D98Y/E187L/E204Q/K202T/N87E/Q94N/R155S/R180L/S121R/S35A/V306I/V36M/Y140S/Y91S)
# HLA B*1501 = HLA B*1501 (Homo sapiens, UniProt P01889, A329T/A93T/A95T/C349S/D201E/D98Y/E187L/E204Q/E69M/E70A/K202T/N87E/Q94N/R155S/R180W/S121R/S35A/S48A/V306I/V36M/Y140S/Y91S)
Structure (SMILES),IC50 (HLA A*3201) [nM],IC50 (HLA B*1503) [nM],IC50 (HLA B*1501) [nM]
CC[C@H](C)[C@H](NC(=O)[C@@H](N)CCCCN)C(=O)N[C@@H](Cc1ccc(O)cc1)C(=O)N[C@@H](CC(N)=O)C(=O)N[C@H](C(=O)N[C@H](C(=O)N[C@@H](CC(N)=O)C(=O)N1CCC[C@H]1C(=O)N[C@@H](Cc1ccccc1)C(=O)O)[C@@H](C)O)C(C)C [3102.1223] (H-KIYNVTNPF-OH),4.3,7.5,2.7
CC[C@H](C)[C@H](NC(=O)[C@@H]1CCCN1C(=O)[C@@H](NC(=O)[C@H](CO)NC(=O)[C@H](CC(N)=O)NC(=O)[C@H](Cc1ccc(O)cc1)NC(=O)[C@H](CO)NC(=O)[C@H](CCC(N)=O)NC(=O)[C@@H](N)CCSC)C(C)C)C(=O)O [3102.0353] (H-MQSYNSVPI-OH),2.5,0.73,1.6
CC(C)C[C@H](NC(=O)[C@H](C)N)C(=O)N[C@@H](CC(C)C)C(=O)N[C@@H](CCC(=O)O)C(=O)N[C@@H](CC(C)C)C(=O)N[C@@H](Cc1ccccc1)C(=O)N[C@@H](CC(N)=O)C(=O)N[C@@H](C)C(=O)N[C@@H](Cc1ccccc1)C(=O)O [3102.0961] (H-ALLELFNAF-OH),166,0.24,2.5
CC(C)C[C@H](N)C(=O)N[C@@H](CO)C(=O)N[C@@H](Cc1ccc(O)cc1)C(=O)N[C@@H](Cc1ccc(O)cc1)C(=O)N[C@H](C(=O)N[C@H](C(=O)N[C@@H](Cc1ccc(O)cc1)C(=O)N[C@H](C(=O)N[C@@H](Cc1ccccc1)C(=O)O)C(C)C)C(C)C)C(C)C [3102.1098] (H-LSYYVVYVF-OH),280,19,6.4
CC[C@H](C)[C@H](NC(=O)[C@H](CO)NC(=O)[C@@H](N)CC(C)C)C(=O)N[C@@H](Cc1ccccc1)C(=O)N[C@@H](Cc1ccccc1)C(=O)N[C@@H](Cc1ccc(O)cc1)C(=O)N[C@@H](CO)C(=O)N[C@@H](CO)C(=O)N[C@@H](Cc1ccccc1)C(=O)O [3102.1177] (H-LSIFFYSSF-OH),129,0.22,17
CC[C@H](C)[C@H](N)C(=O)N[C@H](C(=O)N[C@H](C(=O)N1CCC[C@H]1C(=O)N[C@@H](CC(C)C)C(=O)N[C@@H](CO)C(=O)N[C@H](C(=O)N[C@@H](CO)C(=O)N[C@H](C(=O)O)[C@@H](C)CC)C(C)C)[C@@H](C)CC)[C@@H](C)CC [3102.0502] (H-IIIPLSVSI-OH),70,–,299
CC[C@H](C)[C@H](N)C(=O)N[C@H](C(=O)N[C@@H](C)C(=O)N[C@@H](Cc1c[nH]cn1)C(=O)N[C@@H](CC(C)C)C(=O)N[C@H](C(=O)N[C@@H](CC(N)=O)C(=O)N[C@@H](CO)C(=O)N[C@@H](CC(C)C)C(=O)O)C(C)C)[C@@H](C)O [3102.0503] (H-ITAHLVNSL-OH),183,–,6.5
CC(C)C[C@H](N)C(=O)N[C@H](C(=O)N[C@@H](Cc1ccccc1)C(=O)N[C@@H](CC(=O)O)C(=O)N[C@@H](Cc1ccc(O)cc1)C(=O)N[C@H](C(=O)N[C@H](C(=O)N[C@H](C(=O)N[C@@H](Cc1ccccc1)C(=O)O)[C@@H](C)O)C(C)C)C(C)C)[C@@H](C)O [3102.0931] (H-LTFDYVVTF-OH),17,–,2.5
CC(C)C[C@H](NC(=O)[C@@H](N)CCCNC(=N)N)C(=O)N[C@@H](Cc1ccccc1)C(=O)N[C@@H](Cc1ccc(O)cc1)C(=O)N[C@H](C(=O)N[C@@H](Cc1ccccc1)C(=O)N[C@@H](Cc1ccccc1)C(=O)N[C@@H](CO)C(=O)N[C@@H](Cc1ccc(O)cc1)C(=O)O)[C@@H](C)O [3102.0803] (H-RLFYTFFSY-OH),0.19,–,0.37
CC[C@H](C)[C@H](NC(=O)[C@@H](NC(=O)[C@@H](N)CC(C)C)[C@@H](C)O)C(=O)N[C@@H](C)C(=O)N[C@@H](CS)C(=O)N[C@@H](CCCNC(=N)N)C(=O)N[C@H](C(=O)N[C@@H](CO)C(=O)N[C@@H](CC(C)C)C(=O)O)C(C)C [3102.0376] (H-LTIACRVSL-OH),96,–,76
CC(C)C[C@H](NC(=O)[C@H](Cc1ccccc1)NC(=O)[C@H](Cc1c[nH]c2ccccc12)NC(=O)[C@H](CC(C)C)NC(=O)[C@@H](N)CC(C)C)C(=O)N[C@H](C(=O)NCC(=O)N[C@H](C(=O)N[C@@H](Cc1ccccc1)C(=O)O)[C@@H](C)O)[C@@H](C)O [3102.1045] (H-LLWFLTGTF-OH),93,–,0.78
CC[C@H](C)[C@H](NC(=O)[C@@H](N)CC(N)=O)C(=O)N[C@@H](Cc1ccccc1)C(=O)N1CCC[C@H]1C(=O)N[C@@H](Cc1ccccc1)C(=O)N[C@@H](Cc1ccccc1)C(=O)N[C@H](C(=O)N[C@@H](C)C(=O)N[C@@H](Cc1ccccc1)C(=O)O)C(C)C [3102.1019] (H-NIFPFFVAF-OH),12,–,2.2
CC[C@H](C)[C@H](NC(=O)[C@@H]1CCCN1C(=O)[C@H](CCC(=O)O)NC(=O)[C@H](CCC(=O)O)NC(=O)[C@H](CC(C)C)NC(=O)[C@H](Cc1ccc(O)cc1)NC(=O)[C@H](Cc1ccccc1)NC(=O)[C@H](CC(C)C)NC(=O)[C@@H](N)CCSC)C(=O)O [3102.0881] (H-MLFYLEEPI-OH),2.5,–,45
CC[C@H](C)[C@H](NC(=O)[C@H](CO)NC(=O)[C@H](CC(N)=O)NC(=O)[C@H](CC(C)C)NC(=O)[C@@H](N)CO)C(=O)N[C@@H](Cc1ccccc1)C(=O)N[C@@H](CC(N)=O)C(=O)N[C@H](C(=O)N[C@@H](Cc1ccccc1)C(=O)O)[C@@H](C)O [3102.1238] (H-SLNSIFNTF-OH),14,–,2.2
CC[C@H](C)[C@H](NC(=O)[C@H](CO)NC(=O)[C@@H](N)CCSC)C(=O)N[C@@H](CCSC)C(=O)N1CCC[C@H]1C(=O)N[C@H](C(=O)N[C@@H](CC(C)C)C(=O)N[C@@H](C)C(=O)N[C@@H](Cc1ccc(O)cc1)C(=O)O)C(C)C [3102.0858] (H-MSIMPVLAY-OH),100,–,1.4
CC[C@H](C)[C@H](NC(=O)[C@@H](NC(=O)[C@@H](N)CO)[C@@H](C)CC)C(=O)N[C@@H](CO)C(=O)N[C@@H](CC(C)C)C(=O)N[C@@H](Cc1ccccc1)C(=O)N[C@@H](Cc1ccc(O)cc1)C(=O)N[C@H](C(=O)N[C@@H](Cc1ccccc1)C(=O)O)[C@@H](C)O [3102.0919] (H-SIISLFYTF-OH),5.7,–,1.4
CC[C@H](C)[C@H](NC(=O)[C@H](CC(C)C)NC(=O)[C@@H](N)CCCNC(=N)N)C(=O)N[C@H](C(=O)N[C@@H](CC(C)C)C(=O)N[C@@H](Cc1ccccc1)C(=O)N[C@@H](CCC(=O)O)C(=O)N[C@H](C(=O)N[C@@H](Cc1ccccc1)C(=O)O)C(C)C)C(C)C [3102.0817] (H-RLIVLFEVF-OH),13,–,6.8
CC(C)C[C@H](NC(=O)[C@@H](N)CC(C)C)C(=O)N[C@@H](Cc1ccc(O)cc1)C(=O)N[C@H](C(=O)N[C@@H](C)C(=O)N[C@@H](CC(N)=O)C(=O)N[C@@H](Cc1ccccc1)C(=O)N[C@H](C(=O)N[C@@H](Cc1ccccc1)C(=O)O)[C@@H](C)O)[C@@H](C)O [3102.0873] (H-LLYTANFTF-OH),6.7,–,2.4
CC[C@H](C)[C@H](NC(=O)[C@@H](NC(=O)[C@@H](N)CCCCN)[C@@H](C)O)C(=O)N[C@@H](C)C(=O)N[C@@H](CCCNC(=N)N)C(=O)N[C@@H](Cc1ccccc1)C(=O)N[C@H](C(=O)N[C@@H](Cc1ccc(O)cc1)C(=O)N[C@@H](Cc1ccccc1)C(=O)O)[C@@H](C)O [3102.1031] (H-KTIARFTYF-OH),95,–,0.2
